ChEMBL document CHEMBL3091346, “Structure-activity relationship studies of thalidomide analogs with a taxol-like mode of action” (Bioorg Med Chem Lett, 2013)
Activity calls are given as the source filed them. No cut-off for these calls is given here.

Tests used:
DU-145 = test: Antiproliferative activity against human DU145 cells assessed as growth inhibition by MTS assay; format: functional, cell-based
Tubulin (Sus scrofa) [1] = molecular target: T1, Tubulin (Sus scrofa) (UniProt P02554+P02550); test: Induction of purified porcine brain tubulin polymerization at 50 uM by spectrophotometric analysis
PC-3 [2] = test: Antiproliferative activity against human PC3 cells assessed as growth inhibition by MTS assay; format: functional, cell-based
MDA-MB-231 = test: Antiproliferative activity against human MDA-MB-231 cells assessed as growth inhibition by MTS assay; format: functional, cell-based
Tubulin (Sus scrofa) [3] = molecular target: T1, Tubulin (Sus scrofa); test: Induction of purified porcine brain tubulin polymerization assessed as microtubule-stabilization at 50 uM by spectrophotometric analysis
PC-3 [4] = test: Antiproliferative activity against human PC3 cells assessed as growth inhibition at 30 uM by MTS assay; format: functional; conditions: read-out: GI

T1 sequence (P02550 whole entry, looked up): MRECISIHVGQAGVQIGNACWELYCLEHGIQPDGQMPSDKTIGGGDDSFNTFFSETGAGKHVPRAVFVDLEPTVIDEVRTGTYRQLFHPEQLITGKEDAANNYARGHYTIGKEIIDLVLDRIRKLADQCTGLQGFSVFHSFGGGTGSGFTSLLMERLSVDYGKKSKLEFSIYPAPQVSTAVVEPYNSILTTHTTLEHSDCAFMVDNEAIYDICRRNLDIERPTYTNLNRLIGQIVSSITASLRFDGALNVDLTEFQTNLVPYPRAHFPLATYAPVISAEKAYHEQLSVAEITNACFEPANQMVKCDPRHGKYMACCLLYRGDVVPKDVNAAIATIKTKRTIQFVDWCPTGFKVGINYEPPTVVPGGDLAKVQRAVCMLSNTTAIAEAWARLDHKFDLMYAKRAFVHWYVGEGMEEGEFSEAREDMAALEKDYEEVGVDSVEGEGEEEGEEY
T1 sequence (P02554 whole entry, looked up): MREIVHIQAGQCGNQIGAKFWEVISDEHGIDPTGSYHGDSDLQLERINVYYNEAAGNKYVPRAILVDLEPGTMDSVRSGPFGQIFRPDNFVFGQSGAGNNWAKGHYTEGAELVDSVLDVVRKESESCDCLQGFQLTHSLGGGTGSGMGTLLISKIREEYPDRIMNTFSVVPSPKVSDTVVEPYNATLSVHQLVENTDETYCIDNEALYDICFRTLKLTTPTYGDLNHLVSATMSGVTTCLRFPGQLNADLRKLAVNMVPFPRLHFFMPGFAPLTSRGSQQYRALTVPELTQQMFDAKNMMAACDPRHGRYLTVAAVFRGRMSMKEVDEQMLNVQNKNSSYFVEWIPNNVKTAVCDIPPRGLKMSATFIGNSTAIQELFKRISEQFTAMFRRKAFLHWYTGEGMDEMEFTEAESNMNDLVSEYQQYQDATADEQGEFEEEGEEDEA

| SMILES | IC50 (DU-145) [µM] | Activity (Tubulin (Sus scrofa) [1]) | IC50 (PC-3 [2]) [µM] | IC50 (MDA-MB-231) [µM] | Activity (Tubulin (Sus scrofa) [3]) | inhibition of growth at 30 µM (PC-3 [4]) [%] |
| --- | --- | --- | --- | --- | --- | --- |
| CC(C)c1cccc(C(C)C)c1N1C(=O)c2ccc(N)cc2C1=O | 3.94 | Active | 2.07 | 7.24 | – | – |
| CC(C)c1cccc(C(C)C)c1N1C(=O)c2ccccc2C1=O | 7.12 | – | 4.01 | 4.12 | – | – |
| CCc1cccc(CC)c1N1C(=O)c2ccc(O)cc2C1=O | 45.9 | – | > 50 | 29.2 | Active | – |
| CC(C)c1cccc(C(C)C)c1N1C(=O)c2cccc(O)c2C1=O | 45.6 | Active | 45.2 | 15 | – | – |
| O=C1c2ccccc2C(=O)N1c1c(Cl)cccc1Cl | – | – | – | – | – | < 10 |
| CC(C)c1cccc(C(C)C)c1N1C(=O)c2ccc([N+](=O)[O-])cc2C1=O | 15 | – | – | > 50 | – | – |
| O=C1c2ccccc2C(=O)N1c1ccc2ccccc2c1 | – | – | – | – | – | 16 |
| O=C1c2ccccc2C(=O)N1c1ccc(Cl)cc1Cl | – | – | – | – | – | < 10 |
| O=C1c2ccccc2C(=O)N1c1ccc(Cl)c(Cl)c1 | – | – | – | – | – | < 10 |
| Cc1cccc(C)c1N1C(=O)c2ccccc2C1=O | – | – | – | – | – | < 10 |
| CC(C)c1cccc(C(C)C)c1N1C(=O)c2cccc([N+](=O)[O-])c2C1=O | > 50 | – | 38.3 | 37.7 | – | – |
| COC(=O)c1ccc2c(c1)C(=O)N(c1c(C(C)C)cccc1C(C)C)C2=O | 24.6 | – | 21.8 | 6.87 | – | – |
| Cc1cccc(C)c1N1C(=O)c2ccc(O)cc2C1=O | > 50 | – | > 50 | > 50 | inactive | – |
| O=C1c2ccccc2C(=O)N1c1ccc([N+](=O)[O-])c(C(F)(F)F)c1 | – | – | – | – | – | < 10 |
| CC(C)c1cccc(C(C)C)c1N1C(=O)c2ccc(O)cc2C1=O | 5.74 | Active | 8.3 | 5.35 | Active | > 90 |
| CC(C)c1cccc(C(C)C)c1N1C(=O)c2cccc(N)c2C1=O | 8.14 | – | 6.26 | 7.24 | – | – |
| Cc1ccc2c(c1)C(=O)N(c1c(C(C)C)cccc1C(C)C)C2=O | 6.62 | – | 8.02 | 4.85 | – | – |
| COc1ccc(N2C(=O)c3ccccc3C2=O)cc1OC | – | – | – | – | – | 10.2 |
| O=C1c2ccccc2C(=O)N1c1c(Br)cccc1Br | – | – | – | – | – | 21.9 |
| O=C1c2ccccc2C(=O)N1c1cccc2ccccc12 | – | – | – | – | – | < 10 |
| O=C1c2ccccc2C(=O)N1c1cc(Cl)ccc1Cl | – | – | – | – | – | < 10 |
| O=C1c2ccccc2C(=O)N1c1cc(Cl)cc(Cl)c1 | – | – | – | – | – | < 10 |
| O=C1c2ccccc2C(=O)N1c1c(F)cccc1F | – | – | – | – | – | < 10 |
| CC(C)c1cccc(C(C)C)c1N1C(=O)c2ccc(Cl)cc2C1=O | 14.1 | – | 5.52 | 10.6 | – | – |
| CC(C)c1cccc(C(C)C)c1N1C(=O)c2ccc(C(=O)O)cc2C1=O | 9.16 | – | 6.4 | 5.56 | – | – |
| Cc1ccc(N2C(=O)c3ccccc3C2=O)cc1C | – | – | – | – | – | < 10 |
